From patent US20220168389A1, “METHODS OF MAKING CHIMERIC ANTIGEN RECEPTOR-EXPRESSING CELLS” (priority 2019, published 2022)

Tested on: freshly isolated, quiescent human T cells
Assay: Lentiviral transduction of freshly isolated quiescent (non-activated) T cells, flow cytometry
Type: cell-based
Method: Peripheral blood leukocytes from healthy donors were obtained from the Human Immunology Core. Informed consent was obtained from all participants prior to collection. All methods and experimental procedures were approved by the University of Pennsylvania Institutional Review Board. T cells were purified at the University's Human Immunology Core by negative selection using the RosetteSep T cell enrichment Cocktail. T cells were serum starved in RPMI media containing 10 mM HEPES, 2 mM L-glutamine 100 U/mL penicillin G and 100 μg/mL streptomycin for 2-6 hours and then resuspended at a concentration of 10^7 T cells/mL in X-VIVO 15 (Cambrex, Walkersville, Md.) supplemented with 5% normal human AB serum (Valley Biomedical, Winchester, Va.), 2 mM L-glutamine (Cambrex), 20 mM HEPES (Cambrex), IL7 and IL15 (10 ng/mL, Miltenyi Biotec), and deoxynucleosides (50 μM, Sigma). As the medium was switched to X-VIVO 15, T cells were simultaneously transduced with CD19-BBζ CAR or iRFP lentiviral supernatants for 24 hours.
1×10^6 cells were stained for cell surface markers to analyze T-cell differentiation status. […] Cells were washed with phosphate-buffered saline (PBS) and stained for viability using LIVE/DEAD Fixable Violet (Molecular Probes) for 15 minutes, washed once, and resuspended in fluorescence activated cell sorting (FACS) buffer containing PBS, 1% BSA, and 5 mM EDTA. […] Positively stained cells were differentiated from background using fluorescence-minus-one (FMO) controls. […]
For activated T cells, cells were resuspended at 10^6 T cells/mL in X-VIVO 15 (Cambrex, Walkersville, Md.) supplemented with 5% human AB serum (Valley Biomedical, Winchester, Va.), 2 mM L-glutamine (Cambrex), 20 mM HEPES (Cambrex), IL-7 and IL-15 (10 ng/mL, Miltenyi Biotec). […] Cell volume was also measured with a Multisizer III particle counter (Beckman-Coulter) every other day. […]
T cell differentiation was assessed using the following antibodies: anti-CCR7-FITC (BD Pharmingen); anti-CD45RO-PE, anti-CD8-H7APC (BD Biosciences); anti-CD4-BV510, anti-CD3-BV605, anti-CD14-Pacific Blue (PB), anti-CD19-PB (BioLegend). […]

For deoxynucleosides [dNs], the “increase in transduction efficiency of quiescent T cells” value (50 μM dNs vs cells in medium containing IL-7 and IL-15, iRFP vector (FIG. 2B)) was 3 fold, the “increase in lentiviral transduction of non-activated T cells” value (50 μM dNs, normalized to complete media without dNs, iRFP vector (FIG. 6B)) was ~2 fold and the “transduction efficiency in quiescent T cells” value (serum starvation combined with high concentrations of dNs (FIG. 2B)) was “exceeding 50%”.
